Assay results published in patent US12570642B2, “GLP-IR modulating compounds” (Gilead Sciences, Inc., priority 2021, dated 2026).

Target: GLP-1R (Homo sapiens, UniProt P43220)
Test: GLP-1R Activation - cAMP Assay
Format: cell-based
Conditions: cAMP increase in CHO cells stably expressing GLP-1R; each compound run on one of the two cAMP assays (Assay 1 or Assay 2, not specified)
Procedure, shortened: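 cAMP rise read by HTRF after 30 min agonist exposure (10-point titration, 37 °C) in HBSS/20 mM Hepes/0.1% BSA, following 1 h pre-incubation. Cells: stable GLP-1R CHO line, 1,000/well, seeded overnight. Sigmoidal fit of response vs log concentration gives EC50.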

Sequence of GLP-1R (P43220 24-463): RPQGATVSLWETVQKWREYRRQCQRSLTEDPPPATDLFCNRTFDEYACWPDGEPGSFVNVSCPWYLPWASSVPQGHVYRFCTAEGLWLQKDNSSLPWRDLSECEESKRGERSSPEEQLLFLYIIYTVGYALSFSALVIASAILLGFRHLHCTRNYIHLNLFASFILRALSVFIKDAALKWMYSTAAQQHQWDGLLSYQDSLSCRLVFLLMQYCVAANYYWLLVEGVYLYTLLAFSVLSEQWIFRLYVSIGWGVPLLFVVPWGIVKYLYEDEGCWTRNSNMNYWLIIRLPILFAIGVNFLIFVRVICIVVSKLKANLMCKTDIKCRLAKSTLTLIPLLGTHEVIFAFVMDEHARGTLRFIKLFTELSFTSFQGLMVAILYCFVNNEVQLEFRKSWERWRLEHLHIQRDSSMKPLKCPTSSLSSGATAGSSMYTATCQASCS

Row | Compound | EC50 [nM]
1 | Cc1cc(Cc2nc3c(F)cc(C(=O)O)cc3n2[C@@H]2COCC2(C)C)c(Cl)cc1-c1cccc(OCc2ccc(C#N)cc2F)n1 [Example 139, (S)-2-(2-chloro-4-(6-((4-cyano-2-fluorobenzyl)oxy)pyridin-2-yl)-5-methylbenzyl)-1-(4,4-dimethyltetrahydrofuran-3-yl)-4-fluoro-1H-benzo[d]imidazole-6-carboxylic Acid] | 0.023
2 | Cc1cc(Cc2nc3ccc(C(=O)O)cc3n2[C@@H]2COCC2(C)C)c(Cl)cc1-c1ccc(F)c(OCc2ccc(C#N)cc2F)n1 [Example 140, (S)-2-(2-chloro-4-(6-((4-cyano-2-fluorobenzyl)oxy)-5-fluoropyridin-2-yl)-5-methylbenzyl)-1-(4,4-dimethyltetrahydrofuran-3-yl)-1H-benzo[d]imidazole-6-carboxylic Acid] | 0.158
3 | Cc1cc(Cc2nc3ccc(C(=O)O)cc3n2C[C@@H]2CCO2)c(Cl)cc1-c1ccc(F)c(OCc2ccc(C#N)cc2F)n1 [Example 144, (S)-2-(2-chloro-4-(6-((4-cyano-2-fluorobenzyl)oxy)-5-fluoropyridin-2-yl)-5-methylbenzyl)-1-(oxetan-2-ylmethyl)-1H-benzo[d]imidazole-6-carboxylic Acid] | 1.08
4 | CC(=O)NCc1cc(F)c(COc2cccc(-c3cc(F)c(Cc4nc5ccc(C(=O)O)cc5n4C[C@@H]4CCO4)cc3F)n2)cn1 [Example 147, (S)-2-(4-(6-((6-(acetamidomethyl)-4-fluoropyridin-3-yl)methoxy)pyridin-2-yl)-2,5-difluorobenzyl)-1-(oxetan-2-ylmethyl)-1H-benzo[d]imidazole-6-carboxylic Acid] | 0.233

Further lines, results first:

Row | EC50 [nM] | Compound
5 | 0.136 | Cc1cc(Cc2nc3c(F)cc(C(=O)O)cc3n2[C@@H]2COCC2(C)C)c(Cl)cc1-c1ccc(F)c(OCc2ccc(C#N)cc2F)n1 [Example 138, (S)-2-(2-chloro-4-(6-((4-cyano-2-fluorobenzyl)oxy)-5-fluoropyridin-2-yl)-5-methylbenzyl)-1-(4,4-dimethyltetrahydrofuran-3-yl)-4-fluoro-1H-benzo[d]imidazole-6-carboxylic Acid]
6 | 0.079 | Cc1cc(Cc2nc3ccc(C(=O)O)cc3n2[C@@H]2COCC2(C)C)c(Cl)cc1-c1cccc(OCc2ccc(C#N)cc2F)n1 [Example 141, (S)-2-(2-chloro-4-(6-((4-cyano-2-fluorobenzyl)oxy)pyridin-2-yl)-5-methylbenzyl)-1-(4,4-dimethyltetrahydrofuran-3-yl)-1H-benzo[d]imidazole-6-carboxylic Acid]
7 | 0.894 | Cc1cc(Cc2nc3c(F)cc(C(=O)O)cc3n2C[C@@H]2CCO2)c(Cl)cc1-c1ccc(F)c(OCc2ccc(C#N)cc2F)n1 [Example 142, (S)-2-(2-chloro-4-(6-((4-cyano-2-fluorobenzyl)oxy)-5-fluoropyridin-2-yl)-5-methylbenzyl)-4-fluoro-1-(oxetan-2-ylmethyl)-1H-benzo[d]imidazole-6-carboxylic Acid]
8 | 0.614 | Cc1cc(Cc2nc3c(F)cc(C(=O)O)cc3n2C[C@@H]2CCO2)c(Cl)cc1-c1cccc(OCc2ccc(C#N)cc2F)n1 [Example 143, (S)-2-(2-chloro-4-(6-((4-cyano-2-fluorobenzyl)oxy)pyridin-2-yl)-5-methylbenzyl)-4-fluoro-1-(oxetan-2-ylmethyl)-1H-benzo[d]imidazole-6-carboxylic Acid]
9 | 0.022 | CC1(C)COC[C@H]1n1c(Cn2cc(F)c(-c3cccc(OCc4ccc(C#N)cc4F)n3)cc2=O)nc2c(F)cc(C(=O)O)cc21 [Example 145, (S)-2-((6-((4-cyano-2-fluorobenzyl)oxy)-5′-fluoro-2′-oxo-[2,4′-bipyridin]-1′(2′H)-yl)methyl)-1-(4,4-dimethyltetrahydrofuran-3-yl)-4-fluoro-1H-benzo[d]imidazole-6-carboxylic Acid]
10 | 0.379 | Cc1c(-c2cccc(OCc3ccc(C#N)cc3F)n2)ccc(Cc2nc3ccc(C(=O)O)cc3n2C[C@@H]2CCO2)c1F [Example 146, (S)-2-(4-(6-((4-cyano-2-fluorobenzyl)oxy)pyridin-2-yl)-2-fluoro-3-methylbenzyl)-1-(oxetan-2-ylmethyl)-1H-benzo[d]imidazole-6-carboxylic Acid]
